Entries after “also recorded” stand apart in the source; their conditions may differ.
Test system: hippocampal neurogenesis
Assay: 10 Gy cranial X-irradiation, microglial inflammation and hippocampal neurogenesis at 2 months
Assay type: in vivo, rat
Experimental: Because rats are more radio resistant than humans, 10 Gy approximates a clinically relevant dose and is below the threshold to cause demyelination or overt vasculopathy in rats. This dose of X-irradiation was previously shown to spare roughly 30% of the NPC proliferative activity but completely ablate the production of neurons. X-irradiation was limited to a 1.5 cm cylinder centered over the cranium (remaining body parts were shielded). One month later, BrdU was administered systemically and at 2 months post-irradiation, brain tissues were analyzed for hippocampal neurogenesis.
Control animals were given either vehicle (5% bicarbonate) injections i.p. or plain dog food. To ensure complete consumption of food and medication in the 2 month paradigm, rats were restricted to 80% of their ad lib intake.
Irradiation Adult female Fisher 344 rats were anesthetized with ketamine and xylazine and exposed to cranial irradiation using a Philips orthovoltage X-ray system operated at 200 kVp and 20 mA. A single dose of 10 Gy was delivered to the cranium of each rat with shielding of the body, neck, eyes and snout. Dosimetry was done using TLD dosimeters (K & S Associates, Nashville, Tenn.) buried in the hippocampi, cerebellum, mouth, eyes and ears of euthanized rats. The corrected dose rate was approximately 44.5 cGy/minute. Sham-irradiated controls for all experiments received anesthesia only.
BrdU injections and tissue preparation. Animals were injected intraperitoneally with BrdU once each day for 6 days. Animals were then anesthetized and sacrificed on the 28th day after the initial BrdU injection by transcardial perfusion with 4% paraformaldehyde. Brains were removed and postfixed overnight and then equilibrated in phosphate buffered 30% sucrose. Free floating 40 μm sections were collected on a freezing microtome and stored in cryoprotectant as previously described.
Immunocytochemistry and immunofluorescent staining. […]
Cell counting and unbiased stereology. […] The proportion of BrdU cells displaying a lineage-specific phenotype was determined by scoring the co-localization of cell phenotype markers with BrdU using confocal microscopy. […] When possible, 100 or more BrdU-positive cells were scored for each marker per animal. Each cell was manually examined in its full “z”-dimension and only those cells for which the nucleus was unambiguously associated with the lineage-specific marker were scored as positive. The total number of BrdU-labeled cells per hippocampal granule cell layer and subgranule zone was determined using diaminobenzadine stained tissues. In a separate series, the total number of ED1-labeled cells per dentate gyrus was also determined using diaminobenzadine stained tissue. Stained BrdU-positive nuclei or ED1-positive cells were scored under light microscopy using Microbrightfield Stereo Investigator software and the Fractionator method. Overestimation was corrected using the Abercrombie method for nuclei with empirically determined average diameter of 13 μm within a 40 μm section.

## COc1ccc2c(c1)c(CC(=O)O)c(C)n2C(=O)c1ccc(Cl)cc1 [indomethacin]
indomethacin, non-irradiated
  effect on cell fate in non-irradiated rats: no effect
irradiated, indomethacin 2.5 mg/Kg orally every 12 hours
  effect on CD11b/NG2+ infiltrating peripheral monocytes: particularly effective at decreasing; also recorded: significantly reduced
irradiated, indomethacin-treated (untreated irradiated 15%)
  proportion of proliferative cells adopting a neuronal fate: 37%
irradiated, indomethacin-treated (untreated irradiated 125±25)
  total newborn hippocampal neurons: 360±68 newborn neurons
irradiated, indomethacin-treated (untreated irradiated 828±135)
  total BrdU+ proliferative cells per neurogenic region of the dentate gyrus: 958±136 proliferative cells
